# Source: ChEMBL document CHEMBL6087483 (J Med Chem, 2025)
# Legend:
# Format in all cases: functional
# [1] = Selectivity ratio of IC50 for antiproliferative activity against MTAP wild type human HCT-116 cells to IC50 for antiproliferative activity against MTAP deleted human HCT-116 cells
# [2] = tested on: HCT-116; assay: Antiproliferative activity against MTAP wild type human HCT-116 cells assessed as inhibition of cell viability by luminescence based cell titer-glo assay
# [3] = tested on: HCT-116; assay: Antiproliferative activity against MTAP deleted human HCT-116 cells assessed as inhibition of cell viability by luminescence based cell titer-glo assay
IC50 [2] [µM],IC50 [3] [nM],SMILES,Ratio IC50 [1]
–,–,Nc1nc2cnc(C(=O)N3CCOC[C@@H]3c3ccc(C(F)(F)F)cc3)cc2c2c1COC2,66
0.63,313,CN(C(=O)c1ccc2nc(N)c3c(c2c1)COC3)[C@@H]1CCN(c2ccc3cnn(C)c3c2)C1,–
–,2000,CN(C(=O)c1ccc2nc(N)c3c(c2c1)COC3)[C@H]1CCN(c2ccccc2)C1,–
> 10,451,CN(C(=O)c1ccc2nc(N)c3c(c2c1)COC3)[C@@H]1CCN(c2ccc(C3=CCOCC3)cc2)C1,–
–,–,Cc1cc(NC(=O)C(=O)N2C[C@@H](C)CC[C@@H]2c2ccc3scnc3c2)cnc1N,13
–,719,Nc1nc2ccc(C(=O)N3C[C@@H]4C[C@H]3CN4c3ccccc3)cc2c2c1COC2,–
> 10,1090,CN(C(=O)c1ccc2nc(N)c3c(c2c1)COC3)[C@@H]1CCN(c2ccc(C(F)(F)F)cc2)C1,–
–,1020,CN(C(=O)c1ccc2nc(N)c3c(c2c1)COC3)[C@@H]1CCN(c2ccccc2)C1,–
–,3890,CN(C(=O)c1ccc2nc(N)c3c(c2c1)COC3)C1CCN(c2ccccc2)CC1,–
9.35,137,CN(C(=O)c1cc2c3c(c(N)nc2cn1)COC3)[C@@H]1CCN(c2ccc(C#N)cc2)C1,–
–,3680,N#Cc1cccc(N2C[C@@H]3C[C@H]2CN3C(=O)c2ccc3nc(N)c4c(c3c2)COC4)c1,–
–,6060,CN(C(=O)c1ccc2nc(N)c3c(c2c1)COC3)[C@H]1CCCN(c2ccccc2)C1,–
